Assay results from US9662339B2, “Benzodioxane inhibitors of leukotriene production for combination therapy” (Boehringer Ingelheim International GmbH, priority 2012, dated 2017).

Tests used:
[1] = target: human LTA4 hydrolase (Homo sapiens (Human), UniProt P09960); assay: LTA4H Enzyme assay (cleavage of Arg-AMC, fluorescence); format: biochemical; details: LTA4H Enzyme 1 nM, Arg-AMC substrate 50 μM, room temperature 1 h
Description: The compounds of the invention are assessed for the ability to interact with human LTA4 hydrolase in an enzymatic assay that measures the ability of the enzyme to cleave the peptide bond of arginyl-aminomethylcoumarin (Arg-AMC). LTA4H Enzyme (1 nM final), Arg-AMC substrate (50 μM final), and compound are combined in a reaction buffer (50 mM Tris-HCl (pH 7.5), 100 mM KCl, 0.5% bovine serum albumin) at room temperature for 1 h. The formation of product is assessed by measuring the fluorescence of aminomethylcoumarin product (excitation wavelength 380 nm/emission wavelength 460 nm).

[2] = test system: apoE-/- mouse model of atherosclerosis; assay: apoE-/- mouse model of atherosclerosis; format: in vivo
[3] = test system: New Zealand white rabbit model of atherosclerosis; assay: New Zealand white rabbit model of atherosclerosis, combination with simvastatin; format: in vivo
Description: In Vivo Studies Materials and Method: Rabbit Atherosclerosis Study Methods
The in-life portions of these studies were conducted at Covance Labs (Greenfield, Ind.). NZW rabbits were placed on a HF/HC diet manufactured by Research Diets Inc. (C30355) containing 0.25% cholesterol, 3% peanut oil, and 3% coconut oil for 3 weeks before randomization into treatment groups of 23 animals based on cholesterol levels and LTB4 production. Rabbits with cholesterol levels below 250 mg/dL at the start of treatment were removed from further analysis. The rabbits were fed 125 g of rabbit chow each day and both food consumption and body weights were measured throughout the study period. After 3 weeks the rabbits were either continued on this same diet for 10 weeks (control) or treated with Compound 200 in the same food formulation. Compound treated groups are group 1: compound 200 (3 mg/kg) and simvastatin (2.5 mg/kg); and group 2: compound 200 (15 mg/kg) and simvastatin (2.5 mg/kg). Another group of rabbits were treated with simvastatin alone at a dose of 2.5 mg/kg. During this time, plasma samples were taken for cholesterol, compound exposure, ALT and AST activity, and ex vivo LTB4 production at treatment week 0, 2, 4 and 10. Plasma samples for HDL and LDL levels were taken at week 2, 4 and 10. The animals were sacrificed after ten weeks of treatment, perfused with 10% formalin, and their descending aortas dissected out and placed in […] for transport to Boehringer Ingelheim Pharmaceuticals Inc. for processing. The aortas were pinned out onto the silicone surface inside a metal dish and stained with Sudan IV stain. Atherosclerosis development was determined by image analysis software after photographing the vessels. The percentage of the total vessel staining positive was determined
The mean value of each parameter was calculated for each different treatment group and compared to the control value. A one way ANOVA was used to compare treatment groups to the control group using a Dunnett's test for multiplicity of measures using Excell Stat software. As a pre-planned measurement the mean value of compound 200 treatment groups were individually compared to the simvastatin alone group by a Student's T test. Statistical significance was considered at the p<0.05 level.

[4] = test system: synthesis of LTB4 in human whole blood; assay: LTB4 production inhibition assay in human whole blood (HWB); format: cell-based; details: heparinized human whole blood, calcimycin 20 μM, 37° C.
Description: The compounds of the invention are additionally tested in a human whole blood (HWB) assay to determine their ability to inhibit the synthesis of LTB4 in a cellular system. Compounds are combined with heparinized human whole blood and incubated for 15 minutes at 37° C. Calcimycin (20 μM final, prepared in phosphate-buffered saline, pH 7.4) is then added and the mixture is incubated for another 30 minutes at 37° C. The samples are centrifuged for 5 min at low speed (1500×g) and the plasma layer is removed. Plasma LTB4 concentrations are then measured using an antibody-based homogenous time-resolved fluorescence method (CisBio, Bedford, Mass.). In general, the preferred potency range (IC50) of compounds in the HWB assay is between 10 nM to 10 μM, the more preferred potency range is 10 nM to 1 μM, and the most preferred potency range is 10 nM to 100 nM.

[5] = in combination with simvastatin, compared to the simvastatin treated group

Sequence of human LTA4 hydrolase (P09960 whole entry): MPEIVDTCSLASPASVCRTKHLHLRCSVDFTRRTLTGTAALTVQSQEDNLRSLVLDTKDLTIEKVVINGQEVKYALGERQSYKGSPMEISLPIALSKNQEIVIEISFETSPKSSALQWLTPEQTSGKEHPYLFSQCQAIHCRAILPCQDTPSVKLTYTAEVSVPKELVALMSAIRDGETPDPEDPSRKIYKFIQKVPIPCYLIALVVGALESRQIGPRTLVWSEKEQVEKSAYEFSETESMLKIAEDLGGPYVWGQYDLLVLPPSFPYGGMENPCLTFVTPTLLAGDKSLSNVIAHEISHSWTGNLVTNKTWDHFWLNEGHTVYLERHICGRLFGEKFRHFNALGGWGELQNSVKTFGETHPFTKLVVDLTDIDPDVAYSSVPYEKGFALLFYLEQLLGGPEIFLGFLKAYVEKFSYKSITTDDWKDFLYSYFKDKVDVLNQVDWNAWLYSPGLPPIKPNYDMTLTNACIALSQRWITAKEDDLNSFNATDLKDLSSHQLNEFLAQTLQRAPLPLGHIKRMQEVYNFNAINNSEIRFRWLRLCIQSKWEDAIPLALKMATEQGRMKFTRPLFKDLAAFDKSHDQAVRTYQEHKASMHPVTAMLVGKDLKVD

Compound | IC50 [1] [nM] | further results
c1cncc(CNCc2ccc(C3COc4ccccc4O3)cc2)c1 (stereo not shown) [Example 54, 1-[4-(2,3-dihydro-1,4-benzodioxin-2-yl)phenyl]-N-(pyridin-3-ylmethyl)methanamine] | 5.93 | 
O=C(O)C1CCCN(Cc2ccc(C3COc4ccccc4O3)cc2)C1 (stereo not shown) [Example 113, 1-[4-(2,3-dihydro-1,4-benzodioxin-2-yl)benzyl]piperidine-3-carboxylic acid] | 2.49 | 
NC(=O)C1CCCN(Cc2ccc(C3COc4ccccc4O3)cc2)C1 (stereo not shown) [Example 114, 1-[4-(2,3-dihydro-1,4-benzodioxin-2-yl)benzyl]piperidine-3-carboxamide] | 0.77 | 
F[C@H]1CCN(Cc2ccc(C3COc4ccccc4O3)cc2)C1 (stereo partly drawn) [Example 115, (3S)-1-[4-(2,3-dihydro-1,4-benzodioxin-2-yl)benzyl]-3-fluoropyrrolidine] | 3.03 | 
OC1CCN(Cc2ccc([C@H]3COc4ccccc4O3)cc2)CC1 [Example 192, (S)-1-[4-(2,3-Dihydro-benzo[1,4]dioxin-2-yl)-benzyl]-piperidin-4-ol] | 0.43 | 
OC1CCN(Cc2ccc([C@@H]3COc4ccccc4O3)cc2)CC1 [Example 193, (R)-1-[4-(2,3-Dihydro-benzo[1,4]dioxin-2-yl)-benzyl]-piperidin-4-ol] | 5.35 | 
O=C1NCCC12CCN(Cc1ccc([C@H]3COc4ccccc4O3)cc1)CC2 [Example 194, 8-[(S)-4-(2,3-Dihydro-benzo[1,4]dioxin-2-yl)-benzyl]-2,8-diaza-spiro[4.5]decan-1-one] | 0.15 | 
O=C1NCCC12CCN(Cc1ccc([C@@H]3COc4ccccc4O3)cc1)CC2 [Example 195, 8-[(R)-4-(2,3-Dihydro-benzo[1,4]dioxin-2-yl)-benzyl]-2,8-diaza-spiro[4.5]decan-1-one] | 1.59 | 
c1ccc2c(c1)OC[C@H](c1ccc(CN3CCCC3)cc1)O2 [Example 196, 1-[(S)-4-(2,3-dihydro-benzo[1,4]dioxin-2-yl)-benzyl]-pyrrolidine] | 0.39 | 
c1ccc2c(c1)OC[C@@H](c1ccc(CN3CCCC3)cc1)O2 [Example 197, 1-[(R)-4-(2,3-dihydro-benzo[1,4]dioxin-2-yl)-benzyl]-pyrrolidine] | 2.69 | 
c1ccc2c(c1)OC[C@H](c1ccc(CN3CCOCC3)cc1)O2 [Example 198, 4-[(S)-4-(2,3-dihydro-benzo[1,4]dioxin-2-yl)-benzyl]-morpholine] | 2.28 | 
c1ccc2c(c1)OC[C@@H](c1ccc(CN3CCOCC3)cc1)O2 [Example 199, 4-[(R)-4-(2,3-dihydro-benzo[1,4]dioxin-2-yl)-benzyl]-morpholine] | 40.1 | 
O=C(O)C1CCN(Cc2ccc([C@H]3COc4ccccc4O3)cc2)CC1 [Example 200, (S)-1-[4-(2,3-dihydro-benzo[1,4]dioxin-2-yl)-benzyl]-piperidine-4-carboxylic acid] |  | plaque area in the descending aorta [2]: reduce plaque area; reduction in plaque area within the descending aorta in addition to the reduction due to statin treatment ([3]; in combination with simvastatin 2.5 mg/kg vs simvastatin alone, 10 weeks chow dosing, p<0.05): 35%; plaque area in the descending aorta of rabbits (FIG. 1) ([3]; in combination with simvastatin compared to simvastatin treatment alone): further reduces plaque area; effect on body weight [3, 5]: no significant effects; effect on plasma cholesterol [3, 5]: no significant effects; effect on triglycerides [3, 5]: no significant effects
COCC(=O)NC1CCN(Cc2ccc([C@H]3COc4cccnc4O3)cc2)CC1 [Example 252, N-{1-[(S)-4-(2,3-Dihydro-[1,4]dioxino[2,3-b]pyridin-3-yl)-benzyl]-piperidin-4-yl}-2-methoxy-acetamide] |  | IC50 [4]: 42 nM
